{
  "source": "patent US12582632B2",
  "about": "“Inhibition of neurological injuries due to infections via administration of Butanetap and analogs thereof” (priority 2021, dated 2026)",
  "key": {"[1]": {"system": "Tau in transgenic neo-natal human Tau mice cells", "assay": "Tau in vitro", "format": "cell-based", "conditions": "cells treated for 4 days, antibodies against Tau and phospho-Tau, FIG. 3", "protocol": "The cells were treated for 4 days with butanetap harvested, solubilized, and tested with antibodies against Tau and phospho-Tau. • B. FIG. 4, Tau in vivo. […] After 6 weeks, mice were killed and the total and insoluble (aggregated) tau was measured. […] Precipitated tau corresponds to tangles in the brain."}, "[2]": {"system": "APP/PS1 transgenic (tg) mouse model of AD", "assay": "APP/PS1 transgenic mouse model of AD, memory, learning and synaptic transmission", "format": "in vivo", "text": "(§1) Butanetap's efficacy in treating neurodegeneration in animal models: Restored memory and learning in an APP/PS1 transgenic (tg) mouse model of AD; Restored memory and learning in a Ts65dn mouse model of Down syndrome (DS) [W. Mobley, UCSD, submitted 2020]; Preserved the retina in acute glaucoma [J Sundstrom; Hershey Medical School]; Restored colonic motility in a human SNCAA53T tg mouse model of PD (Kuo et. al., Am J Neurodegener Dis 2019; 8(1):1-15 www.AJND.us/ISSN:216 591X/AJND0086080: Translational inhibition of α-synuclein by Butanetap (Posiphen) normalizes distal colon motility in transgenic Parkinson mice); Preserved memory and learning in traumatic brain injury rats (M-F Chesselet, submitted 2020).\n(§2) Butanetap's reversal of the neurotoxic cascade: Butanetap's mechanism of action is related to APP, Tau, and aSYN expression being regulated by RP1 and by iron and the way these proteins contribute to neurodegeneration by accumulating as toxic aggregates that impair axonal transport and synaptic transmission, causing inflammation, and, finally, leading to nerve cell death (as described previously)."}, "[3]": {"system": "APP, Tau, αSYN and inflammatory markers in CSF", "assay": "MCI subjects proof of mechanism study, CSF markers before and after 10 days", "format": "in vivo, human", "text": "(§3) Three Phase I clinical studies have established butanetap's safety. […] Therefore, we conclude that a much lower single daily butanetap dose would be effective in the proposed study."}, "[4]": {"system": "human SNCAA53T tg mouse model of PD", "conditions": "SNCAA53T tg mice; cited from earlier work"}, "[5]": {"system": "immortalized neuroblastoma (SH-SY5Y) cells", "assay": "Gingipain cytotoxicity on neuroblastoma cells, AlamarBlue viability", "format": "cell-based", "conditions": "48 hours, between 1 and 10 nM", "protocol": "(§4) Immortalized Mouse Astrocytes—SV40T (IMA2.1), immortalized Mouse Microglia (SIM-A9) and immortalized neuroblastoma (SH-SY5Y) cells were infected for 48 hours with gingipains HRgpA and RgpB (arginine gingipains), and Kgp (lysine-specific cysteine proteinase—Lys-gingipain, KGP). After 48 hours the cells were assessed for viability with the AlamarBlue assay and the percentage of dead or alive cells versus control was plotted. […] As expected, since neither are dying, […]. […] Therefore, we expect the efficacious buntanetap dose to fight P. gingivalis infection to be the same as to treat Alzheimer's and Parkinson's disease has no impact on the microglia or neuroblastoma survival in the presence of gingipains."}, "[6]": {"conditions": "cited from earlier work"}, "[7]": {"system": "immortalized Mouse Microglia (SIM-A9)", "assay": "Gingipain cytotoxicity on microglia, AlamarBlue viability", "format": "cell-based", "conditions": "48 hours, between 1 and 10 nM", "protocol": "as §4"}, "[8]": {"target": "APP or aSYN mRNA to IRP1 (Homo sapiens, UniProt P21399)", "sequence (P21399 whole entry)": "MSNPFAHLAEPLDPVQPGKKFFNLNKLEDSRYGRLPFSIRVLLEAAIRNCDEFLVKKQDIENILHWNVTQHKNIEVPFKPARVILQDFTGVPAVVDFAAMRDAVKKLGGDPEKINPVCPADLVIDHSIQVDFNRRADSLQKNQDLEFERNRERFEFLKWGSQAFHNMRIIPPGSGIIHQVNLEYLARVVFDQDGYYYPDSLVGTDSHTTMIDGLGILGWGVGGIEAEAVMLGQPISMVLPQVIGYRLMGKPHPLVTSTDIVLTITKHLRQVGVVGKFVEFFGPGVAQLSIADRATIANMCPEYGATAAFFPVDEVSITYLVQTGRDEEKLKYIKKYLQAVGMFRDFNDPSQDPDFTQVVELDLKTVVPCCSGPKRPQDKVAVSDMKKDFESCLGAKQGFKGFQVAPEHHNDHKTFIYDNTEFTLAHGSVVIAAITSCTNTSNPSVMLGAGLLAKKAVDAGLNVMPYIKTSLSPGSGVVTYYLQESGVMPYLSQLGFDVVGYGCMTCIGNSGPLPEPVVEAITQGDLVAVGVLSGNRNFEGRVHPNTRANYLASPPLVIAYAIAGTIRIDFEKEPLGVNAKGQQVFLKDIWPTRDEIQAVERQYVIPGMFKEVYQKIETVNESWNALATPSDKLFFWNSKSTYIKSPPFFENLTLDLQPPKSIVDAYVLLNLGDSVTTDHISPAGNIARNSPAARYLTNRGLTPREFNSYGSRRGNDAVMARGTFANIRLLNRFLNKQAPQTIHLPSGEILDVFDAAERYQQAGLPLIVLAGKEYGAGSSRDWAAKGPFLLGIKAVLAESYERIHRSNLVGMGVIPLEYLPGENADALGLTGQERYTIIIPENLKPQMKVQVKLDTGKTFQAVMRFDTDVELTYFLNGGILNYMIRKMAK", "assay": "Binding of mRNA IRE to IRP1", "text": "(§5) Therefore, the original data concerning the effects of butanetap working under all conditions is wrong. (See, e.g., Lahiri, et al., “The Experimental Alzheimer's Disease Drug butanetap [(+)-Phenserine] Lowers Amyloid-β Peptide Levels in Cell Culture and Mice”, J. Pharmacol. Ther. 320:386-396, 2007 (hereby incorporated by reference)). It only works in stressed cells, dividing cells and sick cells, e.g., those cells that have high levels of iron.\nButanetap augments the binding of APP mRNA IRE to IRP1 under high iron conditions and prevents APP from being translated excessively, restoring homeostasis. The same mechanism works for all neurotoxic aggregating proteins tested to date: Butanetap works under iron-dishomeostasis to restore homeostasis."}, "[9]": {"system": "neurotoxic aggregating proteins", "assay": "Neurotoxic aggregating proteins in cerebral cortex of transgenic AD and PD animals"}, "[10]": {"system": "fully differentiated healthy resting nerve cells", "assay": "Translation of neurotoxic aggregating proteins in differentiated nerve cells", "format": "cell-based", "text": "as §5"}, "[11]": {"assay": "Phase 1 single and multiple ascending dose safety, tolerance, pharmacokinetic studies in healthy volunteers", "format": "in vivo, human", "conditions": "Phase I pharmacokinetic analyses", "text": "as §3"}, "[12]": {"assay": "Plasma and brain levels in mice by dose", "format": "in vivo"}, "[13]": {"system": "rat acute glaucoma model", "assay": "Acute glaucoma model", "format": "in vivo", "text": "as §1, §2"}, "[14]": {"system": "neuroblastoma cells (SH-SY5Y)", "assay": "Gingipain-induced cell aggregation", "format": "cell-based", "conditions": "24 hours RgpB (10 ug/ml), Kgp (10 ug/ml), or both, FIG. 11"}},
  "data": [
    {"compound": "CN1CC[C@]2(C)c3cc(OC(=O)Nc4ccccc4)ccc3N(C)C12", "note": "(stereo partly drawn) [butanetap, (3aR)-1,3a,8-trimethyl-1,2,3,3a,8,8a-hexahydropyrrolo[2,3-b]indol-5-yl phenylcarbamate]", "values": [
      {"measurement": "Tau expression", "setting": "[1]", "result": "reduces"},
      {"measurement": "memory and learning", "setting": "[2]; APP/PS1 tg mice", "result": "Restored"},
      {"measurement": "impaired synaptic transmission", "setting": "[2]; hippocampus of APP/PS1 tg mice", "result": "Normalized"},
      {"measurement": "aggregating proteins (APP/Aβ, tau/phospho-tau, alpha-synuclein) in CSF", "setting": "[3]; MCI subjects, 10 days of administration, FIG. 8", "result": "normalized"},
      {"measurement": "inflammation", "setting": "[3]; human CSF of MCI subjects", "result": "lowered"},
      {"measurement": "colonic motility", "setting": "[4]", "result": "Restored"},
      {"measurement": "neuroblastoma survival in the presence of gingipains", "setting": "[5]", "result": "no impact"},
      {"measurement": "tolerability", "setting": "[6]; doses up to 4×60 mg daily×10 days", "result": "well tolerated"},
      {"measurement": "terminal half-life", "setting": "[6]; plasma, all doses", "result": "4.3 to 4.7", "unit": "h"},
      {"measurement": "microglia survival in the presence of gingipains", "setting": "[7]", "result": "no impact"},
      {"measurement": "binding of APP mRNA IRE to IRP1", "setting": "[8]; under high iron conditions", "result": "augments"},
      {"measurement": "binding of APP or aSYN mRNA to IRP1", "setting": "[8]; under iron or metal-homeostasis", "result": "does not increase"},
      {"measurement": "neurotoxic aggregating proteins", "setting": "[9]", "result": "not inhibit"},
      {"measurement": "translation of neurotoxic aggregating proteins", "setting": "[10]", "result": "does not inhibit"},
      {"measurement": "concentration in brain relative to plasma", "setting": "[11]", "result": "about 8 times"},
      {"measurement": "Brain levels in mice", "setting": "[12]; dose 0.014 mg/kg", "result": 0, "unit": "ng/gram"},
      {"measurement": "Brain levels in mice", "setting": "[12]; dose 0.07 mg/kg", "result": 0, "unit": "ng/gram"},
      {"measurement": "Brain levels in mice", "setting": "[12]; dose 0.143 mg/kg", "result": 0, "unit": "ng/gram"},
      {"measurement": "Brain levels in mice", "setting": "[12]; dose 0.16 mg/kg", "result": 0, "unit": "ng/gram"},
      {"measurement": "Brain levels in mice", "setting": "[12]; dose 0.21 mg/kg", "result": 0, "unit": "ng/gram"},
      {"measurement": "Brain levels in mice", "setting": "[12]; dose 0.23 mg/kg", "result": 0, "unit": "ng/gram"},
      {"measurement": "Brain levels in mice", "setting": "[12]; dose 0.29 mg/kg", "result": 0, "unit": "ng/gram"},
      {"measurement": "Brain levels in mice", "setting": "[12]; dose 0.34 mg/kg", "result": 0, "unit": "ng/gram"},
      {"measurement": "Brain levels in mice", "setting": "[12]; dose 0.57 mg/kg", "result": 0, "unit": "ng/gram"},
      {"measurement": "Brain levels in mice", "setting": "[12]; dose 1 mg/kg", "result": 16, "unit": "ng/gram"},
      {"measurement": "Brain levels in mice", "setting": "[12]; dose 1.14 mg/kg", "result": 16.8, "unit": "ng/gram"},
      {"measurement": "Brain levels in mice", "setting": "[12]; dose 1.71 mg/kg", "result": 0, "unit": "ng/gram"},
      {"measurement": "Brain levels in mice", "setting": "[12]; dose 2.13 mg/kg", "result": 31.2, "unit": "ng/gram"},
      {"measurement": "Brain levels in mice", "setting": "[12]; dose 2.29 mg/kg", "result": 0, "unit": "ng/gram"},
      {"measurement": "Brain levels in mice", "setting": "[12]; dose 3 mg/kg", "result": 48, "unit": "ng/gram"},
      {"measurement": "Brain levels in mice", "setting": "[12]; dose 5 mg/kg", "result": 80, "unit": "ng/gram"},
      {"measurement": "Brain levels in mice", "setting": "[12]; dose 10 mg/kg", "result": 160, "unit": "ng/gram"},
      {"measurement": "Brain levels in mice", "setting": "[12]; dose 20 mg/kg", "result": 400, "unit": "ng/gram"},
      {"measurement": "Brain levels in mice", "setting": "[12]; dose 30 mg/kg", "result": 800, "unit": "ng/gram"},
      {"measurement": "Brain levels in mice", "setting": "[12]; dose 40 mg/kg", "result": 1200, "unit": "ng/gram"},
      {"measurement": "Brain levels in mice", "setting": "[12]; dose 50 mg/kg", "result": 1680, "unit": "ng/gram"},
      {"measurement": "Brain levels in mice", "setting": "[12]; dose 60 mg/kg", "result": 2400, "unit": "ng/gram"},
      {"measurement": "Brain levels in mice", "setting": "[12]; dose 80 mg/kg", "result": 4800, "unit": "ng/gram"},
      {"measurement": "Brain levels in mice", "setting": "[12]; dose 100 mg/kg", "result": 8000, "unit": "ng/gram"},
      {"measurement": "retina", "setting": "[13]; acute glaucoma", "result": "Preserved"},
      {"measurement": "nerve cells", "setting": "[13]; rat acute glaucoma model", "result": "protected"},
      {"measurement": "gingipain-induced cell aggregation", "setting": "[14]", "result": "blocks"}
    ]}
  ]
}
